Experimental data reported in patent US20260241028A1, “METAL-BASED ANTIBODY-DRUG CONJUGATES AND METHODS OF MAKING AND USING THEREOF” (Laboratory for Synthetic Chemistry and Chemical Biology …, priority 2024, published 2026).
Where two headings read alike, the source gives them in different places.

How the values were obtained:
BxPC3 = assay: In vitro anti-proliferative activity (NBB assay), BxPC3; assay type: cell-based, human; conditions: 72 h
Method: (§1) Cells (4×10^3 cells/well) were seeded in a microtiter plate (96 wells) and incubated overnight before the treatment. […] After the media was removed, the cells were fixed with formaldehyde (3%; 50 μL) in PBS and stained with NBB reagent (0.05%, 0.1 M sodium acetate, 9% acetic acid; 50 μL) for overnight. The stained cells in each well were washed thrice gently with deionized water and solubilized in sodium hydroxide solution (50 mM; 100 μL). The cell viability was determined by measuring the absorbance of 620 nm in each well by microplate reader. The experiments were repeated in triplicate.

PANC1 = assay: In vitro anti-proliferative activity (NBB assay), PANC1; assay type: cell-based; conditions: Table 1; 72 h; read-out: IC50 PANC1 pancreas
Method: as §1

panel of cell lines = assay: NBB assay, summary over the panel of cell lines; assay type: cell-based
Method: as §1

NCI-N87 = assay: In vitro anti-proliferative activity (NBB assay), NCI-N87; assay type: cell-based; conditions: Table 1; 72 h; read-out: IC50 NCI-N87 gastric
Method: as §1

MHCC97L = assay: In vitro anti-proliferative activity (NBB assay), MHCC97L; assay type: cell-based; conditions: Table 1; 72 h; read-out: IC50 MHCC97L liver
Method: as §1

HCT116 = assay: In vitro anti-proliferative activity (NBB assay), HCT116; assay type: cell-based; conditions: Table 1; 72 h; read-out: IC50 HCT116 colon
Method: as §1

A549 = assay: In vitro anti-proliferative activity (NBB assay), A549; assay type: cell-based; conditions: Table 1; 72 h; read-out: IC50 A549 lung
Method: as §1

HEK293 = assay: In vitro anti-proliferative activity (NBB assay), HEK293; assay type: cell-based, human; conditions: Table 1; 72 h; read-out: IC50 HEK293 kidney
Method: as §1

SKOV3 = assay: In vitro anti-proliferative activity (NBB assay), SKOV3; assay type: cell-based; conditions: Table 1; 72 h; read-out: IC50 SKOV3 ovarian
Method: as §1

MDA-MB-231 = assay: In vitro anti-proliferative activity (NBB assay), MDA-MB-231; assay type: cell-based; conditions: Table 1; 72 h; read-out: IC50 MDA-MB-231 breast
Method: as §1

HT29 = assay: In vitro anti-proliferative activity (NBB assay), HT29; assay type: cell-based; conditions: Table 1; 72 h; read-out: IC50 HT29 colon
Method: as §1

Calu3 = assay: In vitro anti-proliferative activity (NBB assay), Calu3; assay type: cell-based, human; conditions: 72 h
Method: as §1

NCI-H460 = assay: In vitro anti-proliferative activity (NBB assay), NCI-H460; assay type: cell-based; conditions: Table 1; 72 h; read-out: IC50 NCI-H460 lung
Method: as §1

SKBR3 = assay: In vitro anti-proliferative activity (NBB assay), SKBR3; assay type: cell-based; conditions: 72 h
Method: as §1

HCC827 = assay: In vitro anti-proliferative activity (NBB assay), HCC827; assay type: cell-based, human; conditions: 72 h
Method: as §1

SW1990 = assay: In vitro anti-proliferative activity (NBB assay), SW1990; assay type: cell-based, human; conditions: 72 h
Method: as §1

[1] = tested on: TROP2-overexpressed cancer cells (HCC827, Calu3, BxPC3, SW1990); assay: Flow cytometric binding study, TROP2-overexpressed cells; assay type: cell-based, human; conditions: flow cytometry, 4° C., 1 h
Method: Cells (2×10^5 cells/tube) were suspended in FACS staining buffer (2% FBS in PBS) into a 1.5 mL eppendorf tube. They were incubated with Sacituzumab, ADC-Au or IgG control respectively in staining buffer (100 μL) at 4° C. After 1 h, the cell suspensions were centrifuged at 1500 rpm for 3 min at 4° C. and washed with staining buffer (1 mL) twice to discard unbound antibodies. The cells were then incubated with Alexa Fluor 594 goat anti-human secondary antibody at 4° C. for 1 h and then subject to centrifugation. The cells were washed twice again and were resuspended in staining buffer. The mean fluorescence intensities (MFI) were measured using Beckman Cytoflex S Flow Cytometer.

[2] = tested on: TROP2-overexpressed cancer cells (HCC827, Calu3, BxPC3, SW1990, SKBR3); assay: NBB assay, summary over TROP2-overexpressed cancer cells; assay type: cell-based; conditions: all the cells of Table 2
Method: as §1

[3] = Table 1, read-out: IC50 BxPC3 pancreas
[4] = Table 1, read-out: IC50 Calu3 lung
[5] = Table 1, read-out: IC50 SKBR3 breast
[6] = Table 1, read-out: IC50 HCC827 lung
[7] = Table 1, read-out: IC50 SW1990 pancreas

| Compound | IC50 (BxPC3; [3]) [nM] | IC50 (PANC1) [nM] | IC50 (NCI-N87) [nM] | IC50 (MHCC97L) [nM] | IC50 (HCT116) [nM] | IC50 (A549) [nM] | IC50 (HEK293) [nM] | IC50 (SKOV3) [nM] | IC50 (MDA-MB-231) [nM] | IC50 (HT29) [nM] | IC50 (Calu3; [4]) [nM] | IC50 (NCI-H460) [nM] | IC50 (SKBR3; [5]) [nM] | IC50 (HCC827; [6]) [nM] | IC50 (SW1990; [7]) [nM] | other results |
| --- | --- | --- | --- | --- | --- | --- | --- | --- | --- | --- | --- | --- | --- | --- | --- | --- |
| O=C(O)c1ccc(C2=c3ccc4[n]3[Au-]35[n]6c(ccc6C(c6ccccc6)=C6C=CC2=[N+]63)C(c2ccccc2)=C2C=CC(=[N+]25)C=4c2ccccc2)cc1.[Cl-] (centres unmarked) [AuCOOH] | 840 | 2430 | 1310 | 2650 | 710 | 690 | 650 | 2890 | 710 | 640 | 1760 | 420 | 270 | 1770 | 2190 | cytotoxicity / potency compared with the other gold complexes (panel of cell lines): lowest cytotoxicity |
| Sacituzumab: TROP2-targeted monoclonal antibody (MCE) | – | – | – | – | – | – | – | – | – | – | – | – | – | – | – | IC50 (BxPC3; Table 2, Example 1 (Sacituzumab ADC), read-out: IC50 BxPC3): > 2000 nM; IC50 (Calu3; Table 2, Example 1 (Sacituzumab ADC), read-out: IC50 Calu3): > 2000 nM; specific binding to TROP2-overexpressed cancer cells [1]: significant specific-binding; IC50 (SKBR3; Table 2, Example 1 (Sacituzumab ADC), read-out: IC50 SKBR3): > 2000 nM; IC50 (HCC827; Table 2, Example 1 (Sacituzumab ADC), read-out: IC50 HCC827): > 2000 nM; IC50 (SW1990; Table 2, Example 1 (Sacituzumab ADC), read-out: IC50 SW1990): > 2000 nM; cell growth inhibition [2]: not obvious |
| C1=CC2=[N+]3C1=C(c1ccccc1)c1ccc4[n]1[Au-]31[n]3c(ccc3=C(c3ccccc3)C3=[N+]1C(=C4c1ccccc1)C=C3)=C2c1ccccc1.Cl [AuTPP, gold (III) tetraphenylporphyrin, reference compound] | 80 | 100 | 100 | 150 | 150 | 90 | 130 | 90 | 180 | 120 | 290 | 120 | 80 | 140 | 170 | – |
